The term Tmax denotes the time from dosing to the highest level.

Results on one compound are retold here after ChEMBL document CHEMBL3832545, “DailyMed|setid=29481887-34eb-460a-bd7f-b8755473065a | EXELON - rivastigmine patch, extended release|Physicians Total Care, Inc”.

What all share (assay type): ADME, organism-based
For data set [1], the system named is Homo sapiens. The experiment in a line: (§1) Evaluation of the pharmacokinetic parameters for Rivastigmine 0.5 to 1 hour after administration of 9.5 mg/24 hours Rivastigmine transdermal system (Exelon patch). Conditions: in vivo, topical_or_ocular, dosed compound id 5, dosed compound name RIVASTIGMINE, regimen Single dose, sampling time1 0.5-1 hr, study dosing duration 24 hr.

The nature of data set [2]: as §1. Conditions: human, in vivo, topical or ocular, dosed compound id 5, dosed compound name RIVASTIGMINE, regimen Single dose, sampling time1 0.5-1 hr, study dosing duration 24 hr, tissue Plasma.
In data set [3] the test system is Homo sapiens. The experiment in a line: Evaluation of the pharmacokinetic parameters for Rivastigmine following multiple oral administration of 6 mg Rivastigmine tablets. Conditions: in vivo, dosed compound id 5, dosed compound name RIVASTIGMINE, regimen Twice daily, tissue Plasma.

Take `CCN(C)C(=O)Oc1cccc([C@H](C)N(C)C)c1` [RIVASTIGMINE]: the Tmax is 1.4 to 2.6 h in the data set on Homo sapiens [1] (tissue Cerebrospinal Fluid (CSF)) and 8 h in the data set on Homo sapiens [1] (tissue Plasma). The compound further had a Vd with Homo sapiens [1] (tissue Plasma) of 1.8 to 2.7 L/kg. Moreover, the CL renal in data set [2] (9.5 mg/24 hours) was in the range of 35 to 46.7 mL/min. In data set [2] (at 9.5 mg, read-out: Protein binding (converted)), the fraction unbound is 0.6. The “Ratio AUC(inf)” value with Homo sapiens [3] amounted to 3.5.
